System: human cancer cell lines
Test: Kendall's Tau correlation of CIN signature activities with drug response (AUC, PRISM drug repurposing screen) across cancer cell lines
Format: cell-based
Details: for tau (Kendall's Tau), CIN signature activity vs drug response: drug AUC, PRISM screen
From the text: Calculating signature activities for cell lines. […] Combined cell line log R and BAF data was split into sample-specific log R and BAF files. […] In this pipeline, while the rescued SNPs allow for the identification of additional segments from their Log R, by construction their average BAF is never equal to 0 or 1 even in the presence of LOH. This biases purity estimates towards lower values and renders the copy-number fitting inaccurate.
Where nT is the total number of copies in the tumour, ρ is the purity and ψ is the average tissue ploidy. Akin to ASCAT, we picked the purity and ploidy combination that minimized the distance between nr and integer values. […] As fitting of absolute copy number to non-matched cell line data is inherently more challenging than other instances, all cell lines where ASCAT identified a plausible solution were visually inspected to determine fit suitability and excluded cell lines where absolute copy number profiles were incorrect or poorly fitted. […] For identifying the signature activities, we used the linear combination decomposition function from YAPSA (R package, v1.12.0) and the 17 signatures of CIN.
CRISPR, RNAi and drug response data integration.
Correlation of signatures with target gene KO, KD and drug inhibition. Kendall's Tau correlation was performed between CIN signature activities and gene essentiality scores from the genetic perturbation screens. Correlations were filtered for tau<−0.07 and q-value<0.05 after multiple testing corrections using the Benjamini-Hochberg method. […] These targets were then used to test correlation of the signature activity with matched drug inhibition of the target measured via AUC.

COc1cc2c(cc1O)CC[C@@H]1[C@@H]2CC[C@]2(C)[C@@H](O)CC[C@@H]12 [2-methoxyestradiol]
tau (Kendall's Tau), CIN signature activity vs drug response (CIN sig. CX5, Target HIF1A): −0.1543

Cc1ccc(NC(=O)c2cccc(C(C)(C)C#N)c2)cc1Nc1ccc2ncn(C)c(=O)c2c1 [AZ-628]
tau (Kendall's Tau), CIN signature activity vs drug response (CIN sig. CX1, Target BRAF): −0.09859
tau (Kendall's Tau), CIN signature activity vs drug response (CIN sig. CX14, Target BRAF): −0.1048
tau (Kendall's Tau), CIN signature activity vs drug response (CIN sig. CX14, Target RAF1): −0.1048
tau (Kendall's Tau), CIN signature activity vs drug response (CIN sig. CX15, Target BRAF): −0.1189

Cn1cc(CNCC2CCN(c3ncc(C(=O)NO)cn3)CC2)c2ccccc21 [JNJ-26481585]
tau (Kendall's Tau), CIN signature activity vs drug response (CIN sig. CX17, Target HDAC2): −0.1371
tau (Kendall's Tau), CIN signature activity vs drug response (CIN sig. CX17, Target HDAC4): −0.1371

OC(Cc1ccncc1)C(Cl)(Cl)Cl (stereo not shown) [PETCM]
tau (Kendall's Tau), CIN signature activity vs drug response (CIN sig. CX9, Target CASP3): −0.1078

O=C1NC(=O)c2c1c1c3ccccc3[nH]c1c1[nH]c3ccccc3c21 [arcyriaflavin-a]
association of CX4 activity with drug response, in words (CIN sig. CX4, Target CCND1, 297 cancer cell lines): correlated with response to inhibition of CCND1
tau (Kendall's Tau), CIN signature activity vs drug response (CIN sig. CX4, Target CCND1): −0.1159
tau (Kendall's Tau), CIN signature activity vs drug response (CIN sig. CX13, Target CDK4): −0.07546

C/C1=C/C[C@@H](/C(C)=C/c2csc(C)n2)OC(=O)C[C@H](O)C(C)(C)C(=O)[C@H](C)[C@@H](O)[C@@H](C)CCC1 [epothilone-d]
tau (Kendall's Tau), CIN signature activity vs drug response (CIN sig. CX9, Target TUBB4B): −0.07597

O=C(c1cc(Cc2n[nH]c(=O)c3ccccc23)ccc1F)N1CCN(C(=O)C2CC2)CC1 [olaparib]
association of CX5 activity with drug response, in words (CIN sig. CX5, Target PARP1, 297 cancer cell lines): predicted response to olaparib

— patent publication US20250054573A1, “METHOD OF CHARACTERISING A DNA SAMPLE” (Cambridge Enterprise Limited, priority 2021, published 2025)
